Test results reported in patent publication US12540143B2, “Methods and compositions for targeted protein degradation” (Ranok Therapeutics (Hangzhou) Co. Ltd., priority 2019, dated 2026).
Where a name gives a salt, the structure may show the parent alone. Read-outs that look alike come from different tables or passages of the source.

What was measured:
[1] = system: SU-DHL-4 diffuse large B-cell lymphoma xenograft; experiment: SU-DHL-4 DLBCL xenograft model in mice
Protocol: 10 μL the cell proliferation reagent CCK-8 (WST-8) was added into each well and incubated at 37° C./5% CO2 for 3-4 hr and the absorbance at 450 nm measured with an En Vision Plate Reader.
5×10^6 MV-4-11 or 1×10^7 SU-DHL-4 cells were collected and re-suspended in 0.1 mL of serum-free media with Matrigel (1:1 v/v) per mouse for subcutaneous inoculation in isoflurane anesthetized male BALB/c nude or C.B-17 scid mice, respectively (treated in accordance with AAALAC animal welfare guidelines). When the average tumor volumes reached 100-200 mm^3, tumor volume outliers were removed and the remaining animals randomly divided into groups of 6-8 with similar average tumor volumes in each group. […] Animals were intravenously dosed at 25 mg/kg, 50 mg/kg or 100 mg/kg 1×/week for 3 or 4 weeks. The appearance and behavior of each mouse was observed and recorded daily. Body weights and tumor volumes were measured and recorded every 2-4 days and the results were expressed as group means±SEM. Pairwise statistical comparisons between groups were performed by one-way ANOVA, and p<0.05 was considered statistically significant.

MYC protein = experiment: MYC Protein Expression HTRF Assay in MV4-11 cells; format: cell-based; conditions: Homo sapiens, 24 hr treatment
Protocol: MYC protein expression was measured using the Human c-Myc Cell-based Assay Kit (Cisbio, #63ADK053PEG), a homogeneous time resolved fluorescence (HTRF) assay. […] Cells were collected by centrifugation, supernatant removed by aspiration and 10 μL of lysis buffer was added and incubated for 45 min at room temperature while shaking. In a 384-well plate, 10 μL of cell lysate/well was combined with 10 μL of premixed antibody solution containing anti-human MYC-Eu3+ Cryptate prepared in detection buffer and incubated overnight at room temperature, whereupon the signal was measured. The ratio of the acceptor and donor emission signals for each individual well were calculated (ratio=665 nm/620 nm[…]).

BRD4 = target: T1, BRD4 (Homo sapiens, UniProt O60885); experiment: BRD4 Degradation Flow Cytometry Assay in MV4-11 cells; format: cell-based; conditions: for Percentage BRD4 degradation vs untreated / BRD4 degradation (in words): MV4-11 cells; for Percentage BRD4 degradation vs untreated: 24 hr, highest degradation percentage observed at concentrations between 40-1000 nM; for BRD4 degradation (in words): flow cytometry
T1 construct: endogenous in cells; host or cells: MV4-11
Protocol: Protein Degradation Flow Cytometry
MV4-11 cells were plated in a 24-well tissue culture plate at a density of 350,000 cells/450 μL/well and incubated in 37° C./5% CO2 for 1 hr. Cells were then treated with compounds at various concentrations and incubated in 37° C./5% CO2 for 24 hr. Cells were harvested, washed once, counted and 200 μL of 1% paraformaldehyde/PBS was added and incubated for 15 min at room temperature. 200 μL of 1×PBS/0.4% Triton X-100 was added and incubated for 15 min at 4° C. Cells were washed three times and resuspended in 50 μL of 1×PBS/0.2% Triton X-100. 2 μL/10^6 cells of anti-BRD4 antibody (ABCAM, #128874) was added and mixed by pipetting up and down. Cells were incubated for 30 min at room temperature in the dark, washed three times and resuspended in 50 μL of 1×PBS/0.2% Triton X-100. Goat anti-rabbit IgG H&L antibody (1:2000 dilution) was added and mixed by pipetting up and down and incubated for 30 min at room temperature in the dark. Finally, cells were washed three times and resuspended in 200 μL of PBS for flow cytometric analysis.

[2] = system: MV4-11 acute myeloid leukemia xenograft; experiment: MV4-11 AML xenograft model in mice; conditions: 25 mg/kg intraperitoneal 1×/day
Protocol: MV4-11 cells were plated in a 96-well tissue culture plate at a density of 4,500 cells/90 μL/well and incubated at 37° C./5% CO2 for 24 hr. Cells were then treated with compounds at various concentrations (a 10-point, 3-fold serial dilution series starting at 20 μM) with a final concentration of 0.5% DMSO/well and then incubated in 37° C./5% CO2 for 72 hr. 10 μL the cell proliferation reagent CCK-8 (WST-8) was added into each well and incubated at 37° C./5% CO2 for 3-4 hr and the absorbance at 450 nm measured with an En Vision Plate Reader.
MV4-11 acute myeloid leukemia and SU-DHL-4 diffuse large B-cell lymphoma (ATCC, #CRL-2957) cells were cultured in medium supplemented with 10% fetal bovine serum at 37° C./5% CO2. 5×10^6 MV-4-11 or 1×10^7 SU-DHL-4 cells were collected and re-suspended in 0.1 mL of serum-free media with Matrigel (1:1 v/v) per mouse for subcutaneous inoculation in isoflurane anesthetized male BALB/c nude or C.B-17 scid mice, respectively (treated in accordance with AAALAC animal welfare guidelines). When the average tumor volumes reached 100-200 mm^3, tumor volume outliers were removed and the remaining animals randomly divided into groups of 6-8 with similar average tumor volumes in each group. […] The appearance and behavior of each mouse was observed and recorded daily. Body weights and tumor volumes were measured and recorded every 2-4 days and the results were expressed as group means±SEM. Pairwise statistical comparisons between groups were performed by one-way ANOVA, and p<0.05 was considered statistically significant.

HSP90α = HSP90α (Homo sapiens, UniProt P07900); experiment: HSP90α Binding Fluorescent Polarization (FP) Assay; conditions: competition with FITC-geldanamycin; read-out: HSP90 Binding Potency
Protocol: HSP90α Binding Fluorescent Polarization (FP) Assay
A master mix was prepared with assay buffer, BSA and FITC-geldanamycin. In a 96-well plate, a serial 3-fold dilution of each compound was prepared ranging from 40 μM down until 2.0 nM. Also in a 96-well plate, recombinant HSP90α protein was diluted to 28 μg/ml. Then, in a 384-well plate, 10 μl of master mix and 5 μl of compound dilution were added per well to duplicate wells and mixed by brief shaking. Then 5 μl of diluted HSP90α protein was added per well, mixed by brief shaking, incubated at 25° C. for 30, 60 and 120 min and fluorescence was measured on an En Vision Plate Reader. Background-subtracted mP values were calculated from En Vision raw data and a four-parameter “log[inhibitor] vs. response” curve was fitted using GraphPad Prism 7.0.

MV4-11 cells = experiment: MV4-11 Cytotoxicity Assay; format: cell-based, human; conditions: Homo sapiens, read-out: MV4-11 cytotoxicity
BRD4 (BD1+BD2) = target: T2, BRD4 (BD1+BD2) (Homo sapiens, UniProt O60885); experiment: BRD4 (BD1 + BD2) Binding HTRF Assay; conditions: read-out: BRD4 Binding Potency
T2 construct: 1.8 μg/ml recombinant BRD4 (BD1+BD2 domains) protein
Protocol: A master mix was prepared with assay buffer, 1.8 μg/ml recombinant BRD4 (BD1+BD2 domains) protein, and 200-fold dilutions of Tb-labeled donor and dye-labeled acceptor. 40-fold dilutions of acetylated and non-acetylated ligands were prepared in 1×BRD TR-FRET assay buffer. Also, a serial 3-fold dilution of each compound was prepared ranging from 40 μM down until 2.0 nM. In a 384-well plate, 5 μl diluted ligand and 5 μl of compound dilution were added per well to duplicate wells and mixed by brief shaking. Then 10 μl of master mix was added per well, mixed by brief shaking, incubated at 25° C. for 2 hr and fluorescence was measured on an En Vision Plate Reader. The 665 nm/615 nm ratio was calculated from EnVision raw data. Data were normalized using whole-plate averages of “positive” and “negative” readings. A four-parameter “log[inhibitor] vs. response” curve was fitted using GraphPad Prism 7.0.

[3] = 100 mg/kg intravenous 1×/week, after 4 weeks of dosing

Row | Compound | IC50 (MYC protein) [nM] | Percentage BRD4 degradation vs untreated (BRD4) | BRD4 degradation (in words) (BRD4) | IC50 (HSP90α) [nM] | IC50 (MV4-11 cells; MV4-11, 72 h) [nM] | further results
1 | CCc1cc(-c2nnc(C(=O)NCC(F)(F)F)n2-c2ccc(CN3CCN(CC4CCN(C(=O)C[C@@H]5N=C(c6ccc(Cl)cc6)c6c(sc(C)c6C)-n6c(C)nnc65)CC4)CC3)cc2)c(O)cc1O.Cl [Compound 78, 4-(4-((4-((1-(2-((6S)-4-(4-chlorophenyl)-2,3,9-trimethyl-6H-thieno[3,2-f][1,2,4]triazolo[4,3-a][1,4]diazepin-6-yl)acetyl)piperidin-4-yl)methyl)piperazin-1-yl)methyl)phenyl)-5-(5-ethyl-2,4-dihydroxyphenyl)-N-(2,2,2-trifluoroethyl)-4H-1,2,4-triazole-3-carboxamide hydrochloride] | – | – | – | – | – | tumor growth inhibition (FIG. 4a) [1, 3]: significant tumor growth inhibition; tumor vs control (T/C) value [1, 3]: 28%; animal deaths and body weights (FIG. 4b) ([1]; any dose level, SU-DHL-4 xenograft): No animal deaths or significant effects on body weights were observed
2 | Cc1sc2c(c1C)C(c1ccc(Cl)cc1)=N[C@@H](CC(=O)N1CCC(CN3CCN(Cc4ccc(-n5c(O)nnc5-c5cc(C(C)C)c(O)cc5O)cc4)CC3)CC1)c1nnc(C)n1-2 [Compound 40, 2-((6S)-4-(4-chlorophenyl)-2,3,9-trimethyl-6H-thieno[3,2-f][1,2,4]triazolo[4,3-a][1,4]diazepin-6-yl)-1-(4-((4-(4-(3-(2,4-dihydroxy-5-isopropylphenyl)-5-hydroxy-4H-1,2,4-triazol-4-yl)benzyl)piperazin-1-yl)methyl)piperidin-1-yl)ethanone, trifluoroacetic acid] | < 100 | A (Degradation > 50%) | – | – | – | ability to degrade BRD4 after pretreatment (BRD4; cells pretreated with a combination of a HSP90 binder and (+)-JQ1): significantly reduced
3 | (+)-JQ1 [reference compound] | – | – | no substantial BRD4 degradation was observed | – | – | tumor growth inhibition [2]: moderate tumor growth inhibition
4 | Cc1sc2c(c1C)C(c1ccc(Cl)cc1)=N[C@@H](CC(=O)NC(C)c1ccc(CN3CCC(Cc4ccc(-n5c(O)nnc5-c5cc(C(C)C)c(O)cc5O)cc4)CC3)cc1)c1nnc(C)n1-2 (stereo in doubt) [Compound 82, 2-((S)-4-(4-chlorophenyl)-2,3,9-trimethyl-6H-thieno[3,2-f][1,2,4]triazolo[4,3-a][1,4]diazepin-6-yl)-N—((R)-1-(4-((4-(4-(3-(2,4-dihydroxy-5-isopropylphenyl)-5-hydroxy-4H-1,2,4-triazol-4-yl)benzyl)piperidin-1-yl)methyl)phenyl)ethyl)acetamide hydrochloride] | – | – | – | 100 to 1000 | – | IC50 (MV4-11 cells; MV4-11, 72 hr, CCK-8): < 100 nM
5 | Cc1sc2c(c1C)C(c1ccc(Cl)cc1)=N[C@H](CC(=O)N1CCC(CN3CCN(Cc4ccc(-n5c(O)nnc5-c5cc(C(C)C)c(O)cc5O)cc4)CC3)CC1)c1nnc(C)n1-2 [Compound 5, 2-((6R)-4-(4-chlorophenyl)-2,3,9-trimethyl-6H-thieno[3,2-f][1,2,4]triazolo[4,3-a][1,4]diazepin-6-yl)-1-(4-((4-(4-(3-(2,4-dihydroxy-5-isopropylphenyl)-5-hydroxy-4H-1,2,4-triazol-4-yl)benzyl)piperazin-1-yl)methyl)piperidin-1-yl)ethanone, trifluoroacetic acid] | < 100 | C (Degradation < 10%) | does not degrade BRD4 | – | < 100 | –
6 | Cc1sc2c(c1C)C(c1ccc(Cl)cc1)=N[C@@H](CCN1CCC(CN3CCN(Cc4ccc(-n5c(O)nnc5-c5cc(C(C)C)c(O)cc5O)cc4)CC3)CC1)c1nnc(C)n1-2 [Compound 76, trifluoroacetic acid] | – | – | – | 100 to 1000 | < 100 | IC50 (BRD4 (BD1+BD2)): > 1000 nM
